For this experiment, the target named is complex between DNA gyrase and pBR322 DNA (Staphylococcus aureus, UniProt P0A0K8+P20831). The experiment is described as follows: Binding assay demonstrating ternary complex formation (SEC with HPLC/MS detection). Further details: species or system S. aureus. The text has this: The above-defined compounds are an exemplary class of compounds, which display the attributes of the claimed compounds of this invention, that is, they act primarily by inhibition of topoisomerase. While the compounds and methods of the invention are directed to eukaryotic, particularly mammalian topoisomerase inhibition, bacterial DNA gyrase was used to illustrate the mechanism of action. The evidence, provided by bacterial enzyme, for such biological activity includes the fact that selective resistance to the compounds is associated with point mutations in Staphylococcus aureus GyrA and B subunits. Further, Escherichia coli and S. aureus DNA gyrase supercoiling activity is inhibited in vitro by the compounds. A ternary complex has been isolated which is composed of pBR322 relaxed circular DNA, S. aureus DNA gyrase, and test compounds. […] The compounds of the invention also show antagonism of ciprofloxacin-induced cleavage of linear DNA.
An excess of test compound is added, typically as a mixture of three ligands, and after incubation the excess compound is separated from the resulting DNA:gyrase complex using size exclusion chromatography (SEC), with reverse phase HPLC and on-line MS detection to identify and quantify the bound compound.

complex between DNA gyrase and pBR322 DNA, sequence (P20831 whole entry): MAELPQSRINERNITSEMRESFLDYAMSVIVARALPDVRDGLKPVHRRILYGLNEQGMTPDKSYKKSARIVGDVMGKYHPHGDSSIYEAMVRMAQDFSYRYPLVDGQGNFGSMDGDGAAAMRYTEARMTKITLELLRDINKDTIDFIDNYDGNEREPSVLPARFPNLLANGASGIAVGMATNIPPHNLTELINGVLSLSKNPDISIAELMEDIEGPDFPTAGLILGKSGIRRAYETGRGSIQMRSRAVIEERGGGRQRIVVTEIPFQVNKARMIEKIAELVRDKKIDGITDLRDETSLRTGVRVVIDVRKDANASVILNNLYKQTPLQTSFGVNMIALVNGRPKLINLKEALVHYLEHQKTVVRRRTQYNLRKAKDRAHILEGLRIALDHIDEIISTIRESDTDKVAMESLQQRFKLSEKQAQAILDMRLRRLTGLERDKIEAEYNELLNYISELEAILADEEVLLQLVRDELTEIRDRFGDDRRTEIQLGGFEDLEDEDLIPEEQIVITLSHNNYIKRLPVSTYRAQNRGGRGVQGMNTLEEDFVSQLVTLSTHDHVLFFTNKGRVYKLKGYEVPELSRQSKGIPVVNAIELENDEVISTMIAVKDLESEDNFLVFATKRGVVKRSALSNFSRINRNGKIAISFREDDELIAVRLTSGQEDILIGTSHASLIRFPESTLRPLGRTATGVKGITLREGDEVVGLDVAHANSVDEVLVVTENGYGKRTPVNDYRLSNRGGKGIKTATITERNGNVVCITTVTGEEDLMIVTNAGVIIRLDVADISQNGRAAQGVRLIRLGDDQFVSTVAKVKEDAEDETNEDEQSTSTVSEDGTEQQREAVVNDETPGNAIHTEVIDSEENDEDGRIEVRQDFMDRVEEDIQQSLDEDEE
complex between DNA gyrase and pBR322 DNA, sequence (P0A0K8 whole entry): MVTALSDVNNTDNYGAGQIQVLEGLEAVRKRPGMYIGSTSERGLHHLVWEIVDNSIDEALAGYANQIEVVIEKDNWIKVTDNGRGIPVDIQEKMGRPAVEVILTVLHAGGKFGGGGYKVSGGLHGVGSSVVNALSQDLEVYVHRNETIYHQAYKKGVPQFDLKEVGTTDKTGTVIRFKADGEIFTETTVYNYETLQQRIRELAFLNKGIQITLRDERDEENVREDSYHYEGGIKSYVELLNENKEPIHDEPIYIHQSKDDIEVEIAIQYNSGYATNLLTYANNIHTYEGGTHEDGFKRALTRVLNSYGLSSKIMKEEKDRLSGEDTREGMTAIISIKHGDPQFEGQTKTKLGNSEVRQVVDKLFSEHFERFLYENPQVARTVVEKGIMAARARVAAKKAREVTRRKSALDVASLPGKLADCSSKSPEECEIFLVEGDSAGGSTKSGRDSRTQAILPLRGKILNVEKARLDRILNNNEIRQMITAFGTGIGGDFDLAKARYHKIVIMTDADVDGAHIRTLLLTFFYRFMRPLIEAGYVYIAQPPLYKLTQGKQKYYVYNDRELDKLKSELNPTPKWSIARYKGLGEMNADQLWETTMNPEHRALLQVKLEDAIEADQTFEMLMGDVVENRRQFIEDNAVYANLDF

Take `CCCCCCCN1CCN(C[C@H](O)c2ccnc3ccc(OC)cc23)C[C@H]1CO.O=C(O)C(=O)O.O=C(O)C(=O)O` [SB366676-AY, [2S]-1-Heptyl-4-[2-(R)-hydroxy-2-(6methoxyquinolin-4-yl)ethyl]-2-hydroxymethylpiperazine dioxalate]: for the setting “DNA gyrase + pBR322 DNA, clear resolution from excess ligand”, the “detection in the high molecular weight fraction on the SEC column” value is listed as “detected in the high molecular weight fraction”. Also, the “binding detected in mixture of ligands” value (in the presence of SB369890 and BRL26172CC) was “Only binding of SB366676-AY”. The “stoichiometry: molecules bound to each gyrase:DNA complex” value (stoichiometry studies) was “two”.
